In article PMC5681660, “Reduced hepatitis B and D viral entry using clinically applied drugs as novel inhibitors of the bile acid transporter NTCP” (Scientific Reports, 2017):
Counter-ions that a name gives are not always drawn. Like-named read-outs stand apart in the source and are kept apart here. Non-standard residues stand in square brackets, D forms with d. Residues, ends and D or L forms follow the SMILES beside them. pGlu = O=C1CC[C@@H](C(=O)O)N1; Thz = O=C(O)[C@@H]1CSCN1

How the values were obtained:
human NTCP [1] = target: T1, human NTCP (Homo sapiens, UniProt Q14973); experiment: Screening fluorescent competitive Myrcludex B-FITC binding assay (96-well, 10 µM drug)
T1 sequence (Q14973 1-349): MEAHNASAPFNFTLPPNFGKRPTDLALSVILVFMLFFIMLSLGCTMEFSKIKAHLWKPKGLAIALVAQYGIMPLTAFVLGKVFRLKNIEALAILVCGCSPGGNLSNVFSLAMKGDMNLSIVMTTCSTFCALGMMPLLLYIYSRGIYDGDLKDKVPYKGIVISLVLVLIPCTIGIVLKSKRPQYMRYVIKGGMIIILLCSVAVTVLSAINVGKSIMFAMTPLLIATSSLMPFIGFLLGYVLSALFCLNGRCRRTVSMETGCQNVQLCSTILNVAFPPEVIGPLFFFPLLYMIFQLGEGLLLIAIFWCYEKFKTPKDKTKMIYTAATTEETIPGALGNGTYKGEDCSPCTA

human NTCP [2] = target: T1, human NTCP; experiment: Screening taurocholate uptake assay (96-well, [14C]taurocholate, 10 µM drug)
[3] = screen, 10 µM drug, Myrcludex B-FITC binding
[4] = combined ranking from functional and binding screening assays
[5] = screen, 10 µM drug, taurocholate uptake
[6] = Prestwick library screen, 10 µM drug, B-score of Myrcludex B-FITC binding
[7] = Prestwick library screen, 10 µM drug, B-score of taurocholate uptake
[8] = combined ranking from functional and binding assay B-scores
[9] = Prestwick library screen, Myrcludex B-FITC binding, 10 µM drug
[10] = Prestwick library screen, taurocholate uptake, 10 µM drug
[11] = ranking score beside the functional and binding assay B-scores of the screen

Structure (SMILES) | B-score binding assay (human NTCP [1]; [6]) | B-score functional assay (human NTCP [2]; [7]) | Ranking score (human NTCP [2]; [8]) | B-score binding assay (human NTCP [1]; [9]) | B-score functional assay (human NTCP [2]; [10]) | Ranking score (human NTCP [2]; [11]) | other results
NNCCc1ccccc1 [Phenelzine sulfate] | – | – | – | – | – | – | B-score binding assay (human NTCP [1]; [3]): -0.533; Ranking score (human NTCP [2]; [4]): 418.784; B-score functional assay (human NTCP [2]; [5]): -0.221
CC(Oc1ccccc1)C(=O)N[C@@H]1C(=O)N2[C@@H]1SC(C)(C)[C@@H]2C(=O)[O-].[K+] (stereo partly drawn) [Phenethicillin potassium salt] | – | – | – | – | – | – | B-score binding assay (human NTCP [1]; [3]): -0.048; Ranking score (human NTCP [2]; [4]): 437.958; B-score functional assay (human NTCP [2]; [5]): -0.676
CN(C)CCC(c1ccccc1)c1ccccn1 (stereo not drawn) [Pheniramine maleate] | – | – | – | – | – | – | B-score binding assay (human NTCP [1]; [3]): -0.017; Ranking score (human NTCP [2]; [4]): 447.397; B-score functional assay (human NTCP [2]; [5]): -0.685
CN1C(=O)CC(c2ccccc2)C1=O (stereo not drawn) [Phensuximide] | – | – | – | – | – | – | B-score binding assay (human NTCP [1]; [3]): -1.044; Ranking score (human NTCP [2]; [4]): 401.836; B-score functional assay (human NTCP [2]; [5]): 0.043
CC(C)(N)Cc1ccccc1.Cl [Phentermine hydrochloride] | 0.892 | 2.461 | 1114.52 | – | – | – | –
Cc1ccc(N(CC2=NCCN2)c2cccc(O)c2)cc1 [Phentolamine hydrochloride] | – | – | – | 1.392 | -0.082 | 785.945 | –
CCCCC1C(=O)N(c2ccccc2)N(c2ccccc2)C1=O [Phenylbutazone] | – | – | – | – | – | – | B-score binding assay (human NTCP [1]; [3]): -0.956; Ranking score (human NTCP [2]; [4]): 440.765; B-score functional assay (human NTCP [2]; [5]): 0.138
CC(N)C(O)c1ccccc1 (stereo not drawn) [Phenylpropanolamine hydrochloride] | – | – | – | – | – | – | B-score binding assay (human NTCP [1]): -0.994; B-score functional assay (human NTCP [2]): 0.305; Ranking score (human NTCP [2]): 449.533
O=C(O)c1ccccc1C(=O)Nc1ccc(S(=O)(=O)Nc2nccs2)cc1 [Phthalylsulfathiazole] | 1.374 | 1.113 | 1099.94 | – | – | – | –
COc1ccc(C(=O)NCc2cccnc2)cc1C(=O)NCc1cccnc1.O [Picotamide monohydrate] | – | – | – | 0.672 | -0.041 | 752.987 | –
C=C(C)[C@@H]1[C@H]2OC(=O)[C@@H]1[C@]1(O)C[C@H]3O[C@]34C(=O)O[C@H]2[C@]14C [Picrotoxinin] | – | – | – | 0.17 | 0.075 | 754.999 | –
O=C1CC[C@@H](C(=O)N2CSC[C@H]2C(=O)O)N1 [Pidotimod] ([pGlu]-[Thz]-OH) | 0.063 | 1.132 | 884.212 | – | – | – | –
CC[C@@H]1C(=O)OC[C@@H]1Cc1cncn1C [Pilocarpine nitrate] | 0.358 | 0.794 | 931.987 | – | – | – | –
CC(N/C(=N\C#N)Nc1ccncc1)C(C)(C)C (stereo not drawn) [Pinacidil] | – | – | – | – | – | – | B-score binding assay (human NTCP [1]; [3]): -0.477; Ranking score (human NTCP [2]; [4]): 332.839; B-score functional assay (human NTCP [2]; [5]): -0.832
CC(C)NCC(O)COc1cccc2[nH]ccc12 (stereo not drawn) [Pindolol] | – | – | – | 0.992 | -0.046 | 777.082 | –
CCn1cc(C(=O)O)c(=O)c2cnc(N3CCNCC3)nc21 [Pipemidic acid] | – | – | – | 0.325 | -0.002 | 736.261 | –
CC[N+]1(C)CCCC(OC(=O)C(O)(c2ccccc2)c2ccccc2)C1 (stereo not drawn) [Pipenzolate bromide] | 0.291 | 2.623 | 1014.24 | – | – | – | –
CCN1CCCC(OC(=O)C(c2ccccc2)c2ccccc2)C1 (stereo not drawn) [Piperidolate hydrochloride] | – | – | – | – | – | – | B-score binding assay (human NTCP [1]; [3]): -1.968; Ranking score (human NTCP [2]; [4]): 357.281; B-score functional assay (human NTCP [2]; [5]): 1.475
NC(=O)CN1CCCC1=O [Piracetam] | – | – | – | -0.345 | 0.881 | 661.843 | –

Structure (SMILES) | B-score binding assay (human NTCP [1]; [6]) | B-score functional assay (human NTCP [2]; [7]) | Ranking score (human NTCP [2]; [8]) | B-score binding assay (human NTCP [1]; [9]) | B-score functional assay (human NTCP [2]; [10]) | Ranking score (human NTCP [2]; [11]) | other results
Cc1nc2ccccn2c(=O)c1CCN1CCC(C(=O)c2ccc(F)cc2)CC1 [Pirenperone] | – | – | – | 3.342 | -0.092 | 829.554 | –
CN1CCN(CC(=O)N2c3ccccc3C(=O)Nc3cccnc32)CC1 [Pirenzepine dihydrochloride] | 0.089 | 0.753 | 857.349 | – | – | – | –
Cl.c1cnc(N2CCN(Cc3ccc4c(c3)OCO4)CC2)nc1 [Piribedil hydrochloride] | 0.754 | 0.676 | 974.49 | – | – | – | –
CCn1cc(C(=O)O)c(=O)c2cnc(N3CCCC3)nc21 [Piromidic acid] | 0.041 | 1.197 | 874.684 | – | – | – | –
CN1C(C(=O)Nc2ccccn2)=C(O)c2ccccc2S1(=O)=O [Piroxicam] | – | – | – | -0.312 | 0.754 | 662.993 | –
CC(C)(C)C(=O)OCOC(=O)[C@@H]1N2C(=O)[C@@H](/N=C/N3CCCCCC3)[C@H]2SC1(C)C [Pivmecillinam hydrochloride] | – | – | – | 0.838 | -0.103 | 729.338 | –
CN1CCC(=C2c3ccccc3CCc3sccc32)CC1.O=C(O)CC(O)C(=O)O [Pizotifen malate] | – | – | – | 0.057 | 0.156 | 745.131 | –
CCCN[C@H]1CCc2nc(N)sc2C1 [Pramipexole dihydrochloride] | – | – | – | – | – | – | B-score binding assay (human NTCP [1]; [3]): -0.164; Ranking score (human NTCP [2]; [4]): 303.528; B-score functional assay (human NTCP [2]; [5]): -1.48
CCCCOc1ccc(OCCCN2CCOCC2)cc1 [Pramoxine hydrochloride] | 0.619 | 1.223 | 1022.18 | – | – | – | –
CC(C(=O)O)c1ccc2c(c1)Cc1cccnc1O2 (stereo not drawn) [Pranoprofen] | – | – | – | 1.204 | -0.016 | 817.912 | –
C[C@]12C=CC(=O)C=C1CC[C@@H]1[C@@H]2C(=O)C[C@@]2(C)[C@H]1CC[C@]2(O)C(=O)CO [Prednisone] | – | – | – | – | – | – | B-score binding assay (human NTCP [1]; [3]): 0.54; Ranking score (human NTCP [2]; [4]): 427.034; B-score functional assay (human NTCP [2]; [5]): -1.367
CC(C)C[C@H](CN)CC(=O)O [Pregabalin] | 0.027 | 1.204 | 863.391 | – | – | – | –
CC(=O)[C@H]1CC[C@H]2[C@@H]3CC=C4C[C@@H](O)CC[C@]4(C)[C@H]3CC[C@]12C [Pregnenolone] | – | – | – | – | – | – | B-score binding assay (human NTCP [1]; [3]): 0.35; Ranking score (human NTCP [2]; [4]): 297.104; B-score functional assay (human NTCP [2]; [5]): -2.394
CC(Cc1ccccc1)NCCC(c1ccccc1)c1ccccc1 (stereo not drawn) [Prenylamine lactate] | 0.388 | 1.102 | 975.256 | – | – | – | –
CS(=O)(=O)O.OC(CCN1CCCCC1)(c1ccccc1)c1ccccc1 [Pridinol methanesulfonate salt] | 0.059 | 1.063 | 875.882 | – | – | – | –
CCCNC(C)C(=O)Nc1ccccc1C (stereo not drawn) [Prilocaine hydrochloride] | – | – | – | – | – | – | B-score binding assay (human NTCP [1]; [3]): -1.737; Ranking score (human NTCP [2]; [4]): 304.329; B-score functional assay (human NTCP [2]; [5]): 0.027
COc1cc(NC(C)CCCN)c2ncccc2c1 (stereo not drawn) [Primaquine diphosphate] | 0.361 | 4.393 | 1046.51 | – | – | – | –
CCC1(c2ccccc2)C(=O)NCNC1=O [Primidone] | – | – | – | -0.009 | 1.471 | 845.018 | –
